Measurements as given in US5677420A, “Phospholipase c-inhibiting peptides” (Kyowa Hakko Kogyo Co., Ltd., priority 1995, dated 1997).
Values after ≈ are worked out from the molar mass of the structure shown. Square brackets hold non-standard residues; d marks the D form. Peptide text beside a SMILES is read from it. Aun = NCCCCCCCCCCC(=O)O

Legend:
[1] = tested on: Klebsiella pneumoniae ATCC 10031; assay: Antibacterial activity, agar dilution method; type: cell-based; settings: medium pH 7.0
Procedure: (§1) The antibacterial activity was determined by the agar dilution method using a medium (pH 7.0) which comprises 3 g/l Bacto-tryptone (Difco Laboratories), 1 g/l meat extract, 1 g/l glucose and 16 g/l agar.

PLC-γ1 = biological target: T1, PLC-γ1 (Bos taurus, UniProt P08487); assay: PLC-inhibiting activity (release of inositol phosphate from [3H]PIP2); type: biochemical; settings: Concentration 123 μM; PLC-γ1 from bovine thymus, 37° C., 10 minutes
T1 construct: A sample of PLC-γ1 was prepared from bovine thymus according to the method described in Y. Honma et al; from tissue; host or cells: bovine thymus
T1 sequence (P08487 1-1291): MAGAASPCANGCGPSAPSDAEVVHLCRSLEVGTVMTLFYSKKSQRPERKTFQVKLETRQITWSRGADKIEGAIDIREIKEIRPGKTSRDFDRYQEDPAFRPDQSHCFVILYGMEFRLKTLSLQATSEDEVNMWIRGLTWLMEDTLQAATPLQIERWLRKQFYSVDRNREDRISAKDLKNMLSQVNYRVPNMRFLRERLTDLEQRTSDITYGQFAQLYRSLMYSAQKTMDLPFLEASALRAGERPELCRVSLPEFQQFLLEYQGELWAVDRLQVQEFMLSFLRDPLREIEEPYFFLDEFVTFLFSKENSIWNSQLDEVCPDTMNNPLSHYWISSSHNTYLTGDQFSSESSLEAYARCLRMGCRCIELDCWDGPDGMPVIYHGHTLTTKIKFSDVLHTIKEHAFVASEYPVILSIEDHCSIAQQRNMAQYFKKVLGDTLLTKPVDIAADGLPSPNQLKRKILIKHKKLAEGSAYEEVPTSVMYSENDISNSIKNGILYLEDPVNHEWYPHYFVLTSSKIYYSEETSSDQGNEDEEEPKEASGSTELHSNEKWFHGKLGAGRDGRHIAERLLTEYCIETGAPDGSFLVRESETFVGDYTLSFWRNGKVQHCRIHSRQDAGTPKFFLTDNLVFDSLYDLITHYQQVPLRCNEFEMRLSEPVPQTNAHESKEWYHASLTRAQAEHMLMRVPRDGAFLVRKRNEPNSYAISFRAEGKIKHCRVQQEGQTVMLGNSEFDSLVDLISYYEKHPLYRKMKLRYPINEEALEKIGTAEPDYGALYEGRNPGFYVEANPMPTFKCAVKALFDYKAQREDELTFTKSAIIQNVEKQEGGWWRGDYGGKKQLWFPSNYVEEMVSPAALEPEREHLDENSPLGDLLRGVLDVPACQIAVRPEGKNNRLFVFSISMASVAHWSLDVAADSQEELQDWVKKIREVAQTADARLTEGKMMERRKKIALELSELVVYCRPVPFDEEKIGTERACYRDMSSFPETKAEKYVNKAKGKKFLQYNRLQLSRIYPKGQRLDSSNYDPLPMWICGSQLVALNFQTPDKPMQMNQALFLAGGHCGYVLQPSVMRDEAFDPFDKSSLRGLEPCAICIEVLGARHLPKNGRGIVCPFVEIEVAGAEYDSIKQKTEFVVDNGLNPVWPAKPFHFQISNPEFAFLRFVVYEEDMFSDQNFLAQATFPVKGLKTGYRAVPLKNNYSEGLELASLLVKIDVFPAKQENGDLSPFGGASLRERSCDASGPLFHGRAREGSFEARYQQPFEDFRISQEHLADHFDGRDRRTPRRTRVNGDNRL
Procedure: PLC-inhibiting activity A sample of PLC-γ1 was prepared from bovine thymus according to the method described in Y. Honma et al., Biochem. J., 269, 13 (1990). A solution having the composition shown in Table 2 below was prepared on ice and was heated to 37° C. to start reaction. After incubation for 10 minutes, 2 ml of a chloroform/methanol mixture (2:1, v/v) was added thereto to stop the reaction. The resulting inositol phosphate was extracted with 0.5 ml of 1N hydrochloric acid. The extract was separated into two liquid phases by centrifugation (2000×g, 3 minutes), and the amount of ^3 H contained in the supernatant (0.7 ml) was measured with a scintillation counter. […] (a) 2-(N-Morpholino)ethanesulfonic acid (b) The peptides and their concentrations in aqueous solutions provided for the test are shown in Table 3. […] The inhibition rate (X) was calculated according to the following equation: X (%)=(A-C)/(B-C)×100 where A is the obtained value of specific radioactivity, B is the value of specific radioactivity obtained when the same amount of water was added instead of the aqueous solution of the test peptide, and C is the value of specific radioactivity obtained when the same amount of water was added instead of the sample and the aqueous solution of the test peptide.

KMS-4 cells = assay: Cell growth-inhibiting activity (BrdU incorporation, cell growth detection kit); type: cell-based; settings: Concentration 1 μM, culturing with peptide for 17 hours
Procedure: Cell growth-inhibiting activity The cell growth-inhibiting activity was determined using a cell growth detection kit (Amersham) in the following manner. KMS-4 cells [M. Nanba et al, International Journal of Cancer, 32, 697 (1983)]were suspended in DMEM medium (Nissui Pharmaceutical Co., Ltd.) containing 10% fetal calf serum at a density of 1-2×10^4 cells/ml, and 1 ml of the cell suspension was put into each well of a 24-well plate (Corning Inc.). The cells were cultured in a CO2 incubator (37° C., 5% CO2) for 2 days. Then, the medium was replaced with a fresh DMEM medium containing 10% fetal calf serum, and the test peptide was added thereto, followed by culturing for 17 hours. […] The number of cells which incorporated BrdU and the total number of cells within one field of vision of a microscope (approximately 200 cells) were determined, and the proportion (%) of stained cells per field of vision was calculated. […] The cell growth-inhibiting activity was calculated in the following manner. That is, the cell growth inhibition rate was calculated according to the following equation: X (%)=(1-B/A)×100 where A is the growth activity when no peptide was added, and B is the growth activity when the test peptide was added.

[2] = tested on: Proteus vulgaris ATCC 6897; assay: Antibacterial activity, agar dilution method; type: cell-based; settings: medium pH 7.0
Procedure: as §1

[3] = tested on: Pseudomonas aeruginosa Bin H No. 1; assay: Antibacterial activity, agar dilution method; type: cell-based; settings: medium pH 7.0
Procedure: as §1

[4] = tested on: Bacillus subtilis No. 10707; assay: Antibacterial activity, agar dilution method; type: cell-based; settings: medium pH 7.0
Procedure: as §1

Compound | MIC (μg/ml) KP [1] | Inhibition rate (%) (PLC-γ1) | Inhibition rate (%) (cell growth) (KMS-4 cells) | MIC (μg/ml) PV [2] | MIC (μg/ml) PA [3] | MIC (μg/ml) BS [4]
CSCC[C@H](NC(=O)[C@H](CCCCN)NC(=O)[C@H](CCCNC(=N)N)NC(=O)[C@H](Cc1ccc(O)cc1)NC(=O)[C@H](CC(C)C)NC(C)=O)C(=O)N[C@@H](CCCNC(=N)N)C(=O)N[C@@H](CC(C)C)C(=O)N[C@@H](CCCNC(=N)N)C(=O)N[C@@H](Cc1ccc(O)cc1)C(=O)N1CCC[C@H]1C(=O)N[C@H](C(=O)NCCCCCCCCCCC(N)=O)C(C)C [Compound (I-6), Ac-Leu-Tyr-Arg-Lys-Met-Arg-Leu-Arg-Tyr-Pro-Val-Aud-NH2] (Ac-LYRKMRLRYPV[Aun]-NH2) | 43 µg/mL (≈ 25 µM) |  |  |  |  | 
Ac-Leu-Tyr-Arg-Lys-Met-Arg-Leu-Arg-Tyr-Pro-Val-Abu-NH2 (Ac-LYRKMRLRYPVX-NH2; not fully specified (residue 12); printed as $CH_3CO$—Leu—Tyr—Arg—Lys—Met—Arg—Leu—Arg—Tyr—Pro—Val—NH—$(CH_2)_3CONH_2$) [Compound (I-1)] |  | 85% | 10% | 83 µg/mL | 167 µg/mL | 167 µg/mL
